# Measured values: ChEMBL document CHEMBL1201862, “PubChem BioAssay data set” (2004)
# The source made the active and inactive calls.
# Assays:
# [1] = target: Protein-tyrosine kinase 2-beta (Homo sapiens, UniProt Q14289);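 note: potency of inhibitors of PYK2 kinase phosphorylation of poly-GT substrate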
# [2] = Luminescence Cell-Based Dose Confirmation HTS to Identify Activators of 5'UTR Stem-Loop Driven Alpha-Synuclein mRNA Translation in H4 Neuroglioblastoma Cells. [Related pubchem assays: 1829 (Project Summary), 1814 (Primary HTS)]; format: functional
# [3] = Luminescence Cell-Based Dose Response HTS to Identify Activators of Luciferase Translation or Activity in H4 […] Cells. [Related pubchem assays: 1829 (Project Summary), 1814 (Primary HTS)]; format: functional
# [4] = Luminescence Cell-Based Dose Confirmation to Identify Activators of 5'UTR Stem-Loop Driven Alpha-Synuclein mRNA Translation in H4 Neuroglioblastoma Cells. [Related pubchem assays: 1829 (Project Summary), 1814 (Primary HTS)]; format: functional
# [5] = Luminescence Cell-Based Dose Response to Identify Activators of Luciferase Translation or Activity in H4-C Neuroglioblastoma Cells. [Related pubchem assays: 1829 (Project Summary), 1814 (Primary HTS)]; format: functional
# [6] = test system: BJ; test: cytotoxicity toward BJ-TERT fibroblasts, dose response, cell-based, RAS-independent, luminescence (AID 1933); format: functional; settings: Homo sapiens
# [7] = test system: BJ; test: cytotoxicity toward BJ-TERT-LT-ST fibroblasts, dose response, cell-based, RAS-independent, luminescence (AID 1935); format: functional; settings: Homo sapiens;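 note: BJ fibroblasts immortalized with TERT plus LT and ST oncogenes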
# [8] = cytotoxicity toward DRD oncogenic fibroblasts, dose response, cell-based, non-viral oncogenic, luminescence (AID 1934); format: functional; settings: Homo sapiens
# [9] = test system: BJ; test: cells; format: functional, cell-based; settings: Homo sapiens
# [10] = Luminescence Cell-Based Dose Response to Identify Activators of 5'UTR Stem-Loop Driven Prion Protein mRNA Translation in H4-C Neuroglioblastoma Cells. [Related pubchem assays: 1829 (Project Summary), 1814 (Primary HTS)]; format: functional
# [11] = test system: H4; test: Luminescence Cell-Based Dose Response HTS to Identify Activators of 5'UTR Stem-Loop Driven Prion Protein mRNA Translation in H4 Neuroglioblastoma Cells. [Related pubchem assays: 1829 (Project Summary), 1814 (Primary HTS)]; format: functional; settings: Homo sapiens
# [12] = target: T1, Neuropeptides B/W receptor type 1 (Homo sapiens, UniProt P48145); test: Fluorescence-based dose response cell-based high throughput screening assay to identify antagonists of the G-protein coupled receptor 7 (GPR7). [Related pubchem assays: 1952 (Screening assay (GPR7 antagonists).), 1880 (Summary AID.)]; format: functional
# T1 sequence (P48145 whole entry): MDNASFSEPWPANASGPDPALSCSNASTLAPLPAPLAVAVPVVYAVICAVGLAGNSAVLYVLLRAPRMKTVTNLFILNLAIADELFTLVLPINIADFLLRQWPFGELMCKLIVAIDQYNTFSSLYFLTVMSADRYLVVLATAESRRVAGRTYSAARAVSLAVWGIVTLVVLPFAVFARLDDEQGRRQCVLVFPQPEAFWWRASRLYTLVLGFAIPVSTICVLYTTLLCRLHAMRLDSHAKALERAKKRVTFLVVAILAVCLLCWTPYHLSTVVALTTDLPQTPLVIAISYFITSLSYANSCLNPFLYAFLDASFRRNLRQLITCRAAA
# [13] = target: Melanin-concentrating hormone receptor 1 (Homo sapiens, UniProt Q99705); test: Fluorescence-based counterscreen for antagonists of the G-protein coupled receptor 7 (GPR7): cell-based high throughput dose response assay to identify antagonists of the melanin-concentrating hormone receptor 1 (MCHR1).; format: functional
# [14] = target: Large T antigen (Simian virus 40, UniProt P03070); format: functional, Betapolyomavirus macacae;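 note: Confirmatory-stage PubChem screen for compounds that inhibit SV40 T antigen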
# [15] = target: T2, Sentrin-specific protease 8 (Homo sapiens, UniProt Q96LD8); format: functional
# T2 sequence (Q96LD8 whole entry): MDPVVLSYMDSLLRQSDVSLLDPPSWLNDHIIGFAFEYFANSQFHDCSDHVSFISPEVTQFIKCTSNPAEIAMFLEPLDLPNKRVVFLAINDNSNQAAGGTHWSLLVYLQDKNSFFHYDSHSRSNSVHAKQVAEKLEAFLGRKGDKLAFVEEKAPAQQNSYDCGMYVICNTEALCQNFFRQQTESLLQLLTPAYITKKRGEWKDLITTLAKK
# [16] = target: T2, Sentrin-specific protease 8; format: functional; remark: listed apart in the source
# [17] = target: T3, Estrogen receptor beta (Homo sapiens, UniProt Q92731); test: ERβ–SRC-3 coactivator interaction inhibitors, confirmation, orthogonal assay, biochemical, ELISA, streptavidin-HRP readout (AID 1060)
# [18] = target: T3, Estrogen receptor beta
# [19] = target: T4, Rac GTPase-activating protein 1 (Homo sapiens, UniProt Q9H0H5); test: MgcRacGAP GTPase-activating activity inhibitors, confirmation, biochemical, ADP Hunter fluorescence, primary and confirmatory (AID 624330); format: functional
# T4 sequence (Q9H0H5 whole entry): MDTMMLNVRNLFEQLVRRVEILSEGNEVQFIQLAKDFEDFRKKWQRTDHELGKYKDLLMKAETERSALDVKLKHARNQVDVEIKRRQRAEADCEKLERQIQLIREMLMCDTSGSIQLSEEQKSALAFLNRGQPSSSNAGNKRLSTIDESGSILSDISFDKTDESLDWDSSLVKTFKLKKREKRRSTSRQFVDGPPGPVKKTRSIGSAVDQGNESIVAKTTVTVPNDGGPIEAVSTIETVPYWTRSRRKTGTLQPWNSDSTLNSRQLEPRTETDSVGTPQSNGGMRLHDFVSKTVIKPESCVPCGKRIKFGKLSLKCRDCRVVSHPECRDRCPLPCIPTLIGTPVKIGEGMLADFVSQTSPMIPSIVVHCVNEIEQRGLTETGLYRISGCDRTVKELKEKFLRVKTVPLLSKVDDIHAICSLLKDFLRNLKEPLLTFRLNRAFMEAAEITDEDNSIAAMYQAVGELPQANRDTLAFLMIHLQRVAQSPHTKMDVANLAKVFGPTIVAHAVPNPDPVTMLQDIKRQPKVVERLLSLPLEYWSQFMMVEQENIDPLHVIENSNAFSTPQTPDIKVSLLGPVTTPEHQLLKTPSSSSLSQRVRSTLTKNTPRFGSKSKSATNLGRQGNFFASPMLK
# [20] = target: T5, Cytochrome P450 1A2 (Homo sapiens, UniProt P05177);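 note: PubChem cytochrome P450 panel assay, CYP1A2 panel member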
# T5 sequence (P05177 whole entry): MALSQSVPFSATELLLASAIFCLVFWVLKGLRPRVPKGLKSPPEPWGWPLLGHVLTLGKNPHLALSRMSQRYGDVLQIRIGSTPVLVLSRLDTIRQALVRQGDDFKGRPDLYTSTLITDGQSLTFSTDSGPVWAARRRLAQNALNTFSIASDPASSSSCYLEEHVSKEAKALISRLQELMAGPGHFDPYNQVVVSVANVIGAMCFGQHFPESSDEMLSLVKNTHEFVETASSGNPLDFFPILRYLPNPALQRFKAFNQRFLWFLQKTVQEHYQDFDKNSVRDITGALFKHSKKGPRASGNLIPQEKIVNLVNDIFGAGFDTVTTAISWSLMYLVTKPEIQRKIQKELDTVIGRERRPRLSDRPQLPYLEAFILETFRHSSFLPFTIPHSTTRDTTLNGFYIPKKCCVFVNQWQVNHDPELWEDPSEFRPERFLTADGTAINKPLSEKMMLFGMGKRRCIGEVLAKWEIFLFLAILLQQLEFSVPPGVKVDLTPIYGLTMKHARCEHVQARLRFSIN
# [21] = target: T6, Mannose-6-phosphate isomerase (Homo sapiens, UniProt P34949); test: human PMI inhibitors, high substrate, primary screen, biochemical, fluorescence intensity, high mannose 6-phosphate (AID 1220)
# T6 sequence (P34949 whole entry): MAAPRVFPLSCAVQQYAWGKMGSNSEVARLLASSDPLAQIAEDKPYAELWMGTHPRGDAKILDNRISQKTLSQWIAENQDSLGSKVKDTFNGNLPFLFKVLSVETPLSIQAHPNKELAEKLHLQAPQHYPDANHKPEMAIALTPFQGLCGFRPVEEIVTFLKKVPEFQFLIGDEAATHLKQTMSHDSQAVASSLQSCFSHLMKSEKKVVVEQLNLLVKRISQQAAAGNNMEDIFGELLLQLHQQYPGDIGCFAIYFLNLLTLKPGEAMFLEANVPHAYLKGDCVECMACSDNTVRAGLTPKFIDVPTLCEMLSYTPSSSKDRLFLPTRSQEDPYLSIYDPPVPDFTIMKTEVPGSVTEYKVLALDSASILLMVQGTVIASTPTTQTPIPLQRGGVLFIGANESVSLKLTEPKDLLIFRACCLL
# Sequence of Melanin-concentrating hormone receptor 1 (Q99705 whole entry): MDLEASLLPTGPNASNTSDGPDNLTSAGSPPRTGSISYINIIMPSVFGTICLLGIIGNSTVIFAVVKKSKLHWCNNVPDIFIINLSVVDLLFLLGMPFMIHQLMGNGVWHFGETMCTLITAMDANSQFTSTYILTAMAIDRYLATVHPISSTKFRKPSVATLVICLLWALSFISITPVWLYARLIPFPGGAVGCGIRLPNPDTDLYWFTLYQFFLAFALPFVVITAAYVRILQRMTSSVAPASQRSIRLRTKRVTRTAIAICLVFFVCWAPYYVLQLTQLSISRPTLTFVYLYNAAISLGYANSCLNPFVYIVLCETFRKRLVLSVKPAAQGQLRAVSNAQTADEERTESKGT
# T3 sequence (Q92731 whole entry): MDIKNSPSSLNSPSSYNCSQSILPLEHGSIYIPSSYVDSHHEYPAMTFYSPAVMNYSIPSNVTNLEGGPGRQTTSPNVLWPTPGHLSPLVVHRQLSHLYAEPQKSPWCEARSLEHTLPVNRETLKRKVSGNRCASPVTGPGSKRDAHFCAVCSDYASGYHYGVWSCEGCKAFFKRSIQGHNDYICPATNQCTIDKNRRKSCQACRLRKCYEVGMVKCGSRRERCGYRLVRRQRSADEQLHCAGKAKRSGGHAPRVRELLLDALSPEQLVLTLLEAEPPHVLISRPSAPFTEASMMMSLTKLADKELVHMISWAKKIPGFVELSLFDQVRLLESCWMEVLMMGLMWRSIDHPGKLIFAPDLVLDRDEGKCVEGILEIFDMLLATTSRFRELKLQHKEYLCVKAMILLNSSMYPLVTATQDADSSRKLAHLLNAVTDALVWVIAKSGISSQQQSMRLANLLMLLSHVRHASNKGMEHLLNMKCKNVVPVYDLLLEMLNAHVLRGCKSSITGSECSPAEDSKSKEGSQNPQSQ
# Sequence of Protein-tyrosine kinase 2-beta (Q14289 whole entry): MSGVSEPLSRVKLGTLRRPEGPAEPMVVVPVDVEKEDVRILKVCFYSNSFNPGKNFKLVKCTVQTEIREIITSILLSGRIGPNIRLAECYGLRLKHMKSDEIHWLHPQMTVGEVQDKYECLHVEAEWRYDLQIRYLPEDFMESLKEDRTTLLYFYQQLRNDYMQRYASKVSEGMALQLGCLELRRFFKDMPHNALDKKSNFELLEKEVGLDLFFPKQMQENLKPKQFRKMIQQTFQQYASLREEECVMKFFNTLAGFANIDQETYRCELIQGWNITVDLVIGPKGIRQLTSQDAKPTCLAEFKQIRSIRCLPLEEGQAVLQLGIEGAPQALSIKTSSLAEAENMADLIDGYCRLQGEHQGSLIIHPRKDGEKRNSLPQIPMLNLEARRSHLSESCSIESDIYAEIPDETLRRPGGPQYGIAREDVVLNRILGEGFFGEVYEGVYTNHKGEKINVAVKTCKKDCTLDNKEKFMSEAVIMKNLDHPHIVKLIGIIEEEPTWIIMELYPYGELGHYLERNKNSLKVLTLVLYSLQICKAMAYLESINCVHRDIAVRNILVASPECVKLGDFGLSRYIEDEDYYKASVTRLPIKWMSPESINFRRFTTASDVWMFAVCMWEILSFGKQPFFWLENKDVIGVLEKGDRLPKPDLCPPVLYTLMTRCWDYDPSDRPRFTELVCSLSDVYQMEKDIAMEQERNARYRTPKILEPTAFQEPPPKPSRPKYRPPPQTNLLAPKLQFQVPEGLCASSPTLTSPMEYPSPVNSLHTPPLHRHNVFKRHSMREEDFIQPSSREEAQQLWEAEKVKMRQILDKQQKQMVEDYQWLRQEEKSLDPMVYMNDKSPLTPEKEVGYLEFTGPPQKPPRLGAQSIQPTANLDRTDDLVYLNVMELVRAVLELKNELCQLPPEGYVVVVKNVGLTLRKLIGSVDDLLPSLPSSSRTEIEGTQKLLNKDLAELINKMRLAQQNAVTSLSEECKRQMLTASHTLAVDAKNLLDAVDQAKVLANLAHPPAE
# Sequence of Large T antigen (P03070 whole entry): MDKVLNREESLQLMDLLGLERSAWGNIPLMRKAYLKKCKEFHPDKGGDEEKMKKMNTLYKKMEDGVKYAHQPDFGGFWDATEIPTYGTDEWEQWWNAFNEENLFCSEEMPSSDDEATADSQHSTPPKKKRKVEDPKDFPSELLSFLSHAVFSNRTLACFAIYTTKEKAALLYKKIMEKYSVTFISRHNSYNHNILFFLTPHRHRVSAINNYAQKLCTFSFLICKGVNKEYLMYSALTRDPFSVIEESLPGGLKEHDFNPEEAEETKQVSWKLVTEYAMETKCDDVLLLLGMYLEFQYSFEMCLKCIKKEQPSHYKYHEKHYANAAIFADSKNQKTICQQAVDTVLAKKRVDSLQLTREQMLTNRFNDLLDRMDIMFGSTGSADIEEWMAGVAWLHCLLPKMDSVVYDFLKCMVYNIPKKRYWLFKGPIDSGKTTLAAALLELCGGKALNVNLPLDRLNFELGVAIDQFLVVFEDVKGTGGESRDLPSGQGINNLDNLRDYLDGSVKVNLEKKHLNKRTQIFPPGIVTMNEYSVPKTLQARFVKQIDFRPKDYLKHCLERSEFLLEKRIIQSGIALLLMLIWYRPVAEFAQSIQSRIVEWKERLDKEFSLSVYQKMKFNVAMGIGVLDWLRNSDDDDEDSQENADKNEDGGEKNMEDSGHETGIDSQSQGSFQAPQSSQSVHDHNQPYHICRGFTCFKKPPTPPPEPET
smiles,measurement,setting,value
O=C1Nc2ccc(NS(=O)(=O)c3cccs3)c3cccc1c23,IC50,[1],5.32 µM (active)
N#CC1=C(SCC(=O)c2ccccc2)N=C2CCCC(O)=C2C1c1ccco1 (stereo not drawn),EC50,[2],> 120 µM (not active)
same,EC50,[3],< 0.1 µM (active)
same,EC50,[4],0.464 µM (active)
same,EC50,[5],0.395 µM (active)
same,EC50,[6],2.85 µM (active)
same,EC50,[7],18.9 µM (active)
same,EC50,[8],19.3 µM (inconclusive)
same,EC50,[9],42.1 µM (inconclusive)
same,EC50,[10],1.22 µM (active)
same,EC50,[11],> 120 µM (not active)
COc1ccc(C(CNC(=O)COc2ccc(Cl)c(C)c2)N2CCCCC2)cc1 (stereo not drawn),IC50,[12],> 4.87 µM (active)
same,IC50,[13],11.3 µM (not active)
O=C(Nc1ccc(O)cc1)C1CC=CCC1 (stereo not drawn),IC50,[14],16.4 µM (active)
same,IC50,[15],19.1 µM (active)
same,IC50,[16],25.1 µM (active)
same,IC50,[17],0.124 µM (not active)
same,IC50,[18],3.2 µM (active)
same,IC50,[19],40.7 µM (active)
COc1ccc(C2CC2/C(=N/O)c2ccccn2)cc1 (stereo not drawn),IC50,[12],> 43.8 µM (not active)
same,IC50,[13],> 43.8 µM (not active)
Brc1c(NC2=NCCN2)ccc2nccnc12 [BRIMONIDINE],AC50,[20],39.8 µM (inconclusive)
same,IC50,[21],> 50 µM (not active)
